Reference: US7973056B2, “Triazole derivative or salt thereof” (Fujifilm Finechemicals Co., Ltd, priority 2008, dated 2011)

Key:
[1] = tested on: Candida albicans ATCC 10231; assay: Antifungal activity test (in vitro), MIC; assay type: cell-based; conditions: ATCC10231
Procedure: (§1) Minimum inhibitory concentration (MIC) of each of the compounds obtained in Examples 1 to 12 was measured for respective fungi at MOS Pharm Service, by the methods described in Antimicrobial Agents and Chemotherapy, vol. 3, pp. 40-48 (1973), Antimicrobial Agents and Chemotherapy, vol. 33, pp. 215-222 (1989) and Antimicrobial Agents and Chemotherapy, vol. 38, pp. 2362-2368 (1994). The measuring conditions are shown in the following. In this case, Voriconazol was used as a comparative compound. Candida albicans ATCC 10231 and ATCC 44858; Cultured at 37° C. for 20 hours using fluid Sabouraud medium, and this was used as a cell suspension. Each of the compounds of the invention was adjusted to a concentration of 1% by weight using dimethyl sulfoxide (DMSO) and a medium similar to the respective medium used in the above-mentioned fungal culture, having a final concentration of from 0.001 to 100 μg/ml, was prepared. Each of the inoculation cell suspensions prepared by the above-mentioned methods was inoculated onto this agar plate. […] In this connection, Voriconazol was used as the comparative compound C-1.

[2] = tested on: Microsporum canis ATCC 36299; assay: Antifungal activity test (in vitro), MIC; assay type: cell-based; conditions: ATCC36299
Procedure: as §1, with “Microsporum canis” for “Candida albicans”, “36299;” for “10231 and ATCC 44858;”, “30°” for “37°”, “2 days” for “20 hours”

[3] = tested on: Trichophyton mentagrophytes ATCC 9533; assay: Antifungal activity test (in vitro), MIC; assay type: cell-based; conditions: ATCC9533
Procedure: as §1, with “Trichophyton mentagrophytes” for “Candida albicans”, “9533;” for “10231 and ATCC 44858;”, “28°” for “37°”, “3 days” for “20 hours”

[4] = tested on: Pityrosporum ovale ATCC 38593; assay: Antifungal activity test (in vitro), MIC; assay type: cell-based; conditions: Malassezia furfur, ATCC38593
Procedure: as §1, with “Cryptococcus neoformans” for “Candida albicans”, “24067, Pityrosporum ovale” for “10231 and”, “38593;” for “44858;”, “2 day” for “20 hours”

[5] = tested on: Cryptococcus neoformans ATCC 24067; assay: Antifungal activity test (in vitro), MIC; assay type: cell-based; conditions: ATCC24067
Procedure: as §1, with “Cryptococcus neoformans” for “Candida albicans”, “24067, Pityrosporum ovale” for “10231 and”, “38593;” for “44858;”, “2 day” for “20 hours”

[6] = tested on: Aspergillus fumigatus ATCC 1028; assay: Antifungal activity test (in vitro), MIC; assay type: cell-based; conditions: ATCC1028
Procedure: Minimum inhibitory concentration (MIC) of each of the compounds obtained in Examples 1 to 12 was measured for respective fungi at MOS Pharm Service, by the methods described in Antimicrobial Agents and Chemotherapy, vol. 3, pp. 40-48 (1973), Antimicrobial Agents and Chemotherapy, vol. 33, pp. 215-222 (1989) and Antimicrobial Agents and Chemotherapy, vol. 38, pp. 2362-2368 (1994). The measuring conditions are shown in the following. In this case, Voriconazol was used as a comparative compound.
Aspergillus fumigatus ATCC 1028; Cultured at 28° C. for 2 days using potato dextrose broth, and this was used as a cell suspension.
Each of the compounds of the invention was adjusted to a concentration of 1% by weight using dimethyl sulfoxide (DMSO) and a medium similar to the respective medium used in the above-mentioned fungal culture, having a final concentration of from 0.001 to 100 μg/ml, was prepared. Each of the inoculation cell suspensions prepared by the above-mentioned methods was inoculated onto this agar plate. […] In this connection, Voriconazol was used as the comparative compound C-1.

[7] = tested on: Candida albicans TIMM 1623; assay: Antifungal activity test (in vivo), mouse systemic infection model; conditions: for T/C (%): survival time of administration group / control group x100
Procedure: With respect to compounds I-1, I-3 and I-6 obtained in Examples 1, 3 and 6 respectively, therapeutic effects at the time of subcutaneous administration of compounds I-1, I-3 and I-6 on a mouse systemic infection model by Candida albicans TIMM 1623 were tested.
The test was carried out using 5 animals for each of the drug administration groups and Negative control group (sterile physiological saline administration group).
Each of compounds I-1, I-3 and I-6 was dissolved in and diluted with dimethyl sulfoxide (DMSO; Wako Pure Chemical Industries, Ltd.) and then prepared into a predetermined concentration by diluting with sterile physiological saline.
As the control experiment, Fluconazole (FLCZ, Flanos intravenous drip solution 100 mg; TOYAMA CHEMICAL CO, LTD.) diluted to a predetermined concentration with sterile physiological saline was used.
On the next day of the receipt of animals, body weights of mice were measured and CP (crude protein) was intraperitoneally administered at a dose of 200 mg/kg based on the individual body weight, and then they were reared for 3 days.
Cells of C. albicans TIMM 1623 cultured overnight at 35° C. on SDA (Sabouraud dextrose agar; Eiken Chemical Co., Ltd.) plate medium were suspended in sterile physiological saline and used as the Stock solution, and a portion thereof was diluted with 10% formalin (Wako Pure Chemical Industries, Ltd.). The number of cells in the diluted liquid was counted under a biological microscope using a hemocytometer, and then an inoculum was prepared by diluting the stock solution with sterile physiological saline (about 1.5×10^5 cells/ml). By inoculating 0.2 ml of this cell suspension through caudal vein, infection was induced. In this connection, the number of viable cells in the inoculum was verified by spreading the cell suspension optionally diluted with sterile physiological saline on an SDA plate medium and then culturing at 35° C. Each of the substances to be tested, control substance or sterile physiological saline was subcutaneously administered after 2 hours of the infection and for 3 days starting on the next day of infection once a day, a total of 4 times. After measuring individual body weight on the next day of infection, CP was again administered intraperitoneally at a dose of 100 mg/kg. The number of survived mice was observed and recorded for 14 days starting on the next day of infection.
The results were shown in Table 3 below and FIGS. 1A to 1D. In the table, the administration dose of the compounds of the present invention and the comparative compound represents a mg amount per 1 kg of a mouse weight (mg/kg).
Significant deference was tested, by 5% for both sides of the levels of significance, in accordance with the Kaplan-Meier method Logrank test (comparison of multiple groups), on the survival time distribution of each of the substances to be tested and control substance administration groups and sterile physiological saline administration group. SAS release 8.2 (SAS Institute Japan) was used in the Kaplan-Meier method Logrank test. (T/C(%)=[survival time of administration group (integrated value)/survival time of control group (integrated value)]×100)

Cc1ccc(C2=CCCN([C@H](C)[C@](O)(Cn3cncn3)c3ccc(F)cc3F)C2)nc1C [I-11, (2R,3R)-2-(2,4-difluorophenyl)-3-(5,6-dimethyl-5′,6′-dihydro-2,3′-bipyridin-1′(2′H)-yl)-1-(1,2,4-triazol-1-yl)butan-2-ol]
0.1 µg/mL: MIC [4]
100 µg/mL: MIC [1] | MIC [6]
0.3 µg/mL: MIC [5]
10 µg/mL: MIC [2] | MIC [3]

OC(Cn1cncn1)(Cn1cncn1)c1ccc(F)cc1F [FLCZ, Fluconazole, reference compound]
60: survival rate ([7]; 0.1 mg/kg s.c., day 3) | survival rate ([7]; 0.1 mg/kg s.c., day 4) | survival rate ([7]; 0.1 mg/kg s.c., day 5) | survival rate ([7]; 0.1 mg/kg s.c., day 6)
216%: T/C (%) ([7]; 0.3 mg/kg s.c.)
119%: T/C (%) ([7]; 0.1 mg/kg s.c.)
20: survival rate ([7]; 0.1 mg/kg s.c., day 9) | survival rate ([7]; 0.1 mg/kg s.c., day 10) | survival rate ([7]; 0.1 mg/kg s.c., day 11) | survival rate ([7]; 0.1 mg/kg s.c., day 12) | survival rate ([7]; 0.1 mg/kg s.c., day 13) | survival rate ([7]; 0.1 mg/kg s.c., day 14)
80: survival rate ([7]; 0.3 mg/kg s.c., day 7) | survival rate ([7]; 0.3 mg/kg s.c., day 8) | survival rate ([7]; 0.3 mg/kg s.c., day 9) | survival rate ([7]; 0.3 mg/kg s.c., day 10) | survival rate ([7]; 0.3 mg/kg s.c., day 11) | survival rate ([7]; 0.3 mg/kg s.c., day 12) | survival rate ([7]; 0.3 mg/kg s.c., day 13) | survival rate ([7]; 0.3 mg/kg s.c., day 14) | survival rate ([7]; 1 mg/kg s.c., day 13) | survival rate ([7]; 1 mg/kg s.c., day 14)
235%: T/C (%) ([7]; 1 mg/kg s.c.)
40: survival rate ([7]; 0.1 mg/kg s.c., day 7) | survival rate ([7]; 0.1 mg/kg s.c., day 8)
100: survival rate ([7]; 0.1 mg/kg s.c., day 0) | survival rate ([7]; 0.1 mg/kg s.c., day 1) | survival rate ([7]; 0.1 mg/kg s.c., day 2) | survival rate ([7]; 0.3 mg/kg s.c., day 0) | survival rate ([7]; 0.3 mg/kg s.c., day 1) | survival rate ([7]; 0.3 mg/kg s.c., day 2) | survival rate ([7]; 0.3 mg/kg s.c., day 3) | survival rate ([7]; 0.3 mg/kg s.c., day 4) | survival rate ([7]; 0.3 mg/kg s.c., day 5) | survival rate ([7]; 0.3 mg/kg s.c., day 6) | survival rate ([7]; 1 mg/kg s.c., day 0) | survival rate ([7]; 1 mg/kg s.c., day 1) | survival rate ([7]; 1 mg/kg s.c., day 2) | survival rate ([7]; 1 mg/kg s.c., day 3) | survival rate ([7]; 1 mg/kg s.c., day 4) | survival rate ([7]; 1 mg/kg s.c., day 5) | survival rate ([7]; 1 mg/kg s.c., day 6) | survival rate ([7]; 1 mg/kg s.c., day 7) | survival rate ([7]; 1 mg/kg s.c., day 8) | survival rate ([7]; 1 mg/kg s.c., day 9) | survival rate ([7]; 1 mg/kg s.c., day 10) | survival rate ([7]; 1 mg/kg s.c., day 11) | survival rate ([7]; 1 mg/kg s.c., day 12)
